Source: patent US5366983A, “Use of quaternary ammonium compounds to remove salmonella contamination from meat products” (The Board of Trustees of The University of Arkansas, priority 1992, dated 1994)
Where two headings read alike, the source gives them in different places.

Tests used:
[1] = system: Salmonella typhimurium ATCC 14028 attached to human buccal epithelial cells; assay: microbe, parasite or virus in culture; format: cell-based; settings: Table A-3
Procedure: Additional studies on the detachment of Salmonella typhimurium from human buccal epithelial cells were conducted.
S. typhimurium ATCC 14028 was grown in nutrient broth (BBL Microbiology system, Cockeysville, Md.) for 16 hours at 37° C. The cells were centrifuged and washed twice with 0.008 M phosphate buffered saline (PBS, at pH 7.2) at 4500 rpm for 10 minutes. The last suspension was diluted in PBS to obtain a cell concentration 0.5 to 1×10^9 cells/ml using spectrophotometric measurement. Human epithelial cells were obtained by swabbing the buccal surface of a healthy, nonsmoking donor. […] The number of living cells was estimated and the suspension was diluted to 0.5 to 1×10^5 cells/ml.
The suspension of the human buccal cells was mixed with an equal volume of the bacterial suspension (3.0 ml), or PBS (0.8 ml) in 10 ml Erlenmeyer flasks. Contact was allowed for 1.5 hours at 35° C. under agitation. After incubation, 1.0 ml of each suspension was transferred into an Eppendorff vial, centrifuged at 3000 rpm for 10 minutes, and washed with PBS. The cells were treated with 1.0 ml PBS or 1.0 ml of the test chemical solution. Treatment was performed by suspending, gently vortexing, and centrifuging at 1500 rpm for 10 minutes. After the treatment, the cells were washed and placed on microscopic slides for examination.
EC50 represents the inverse measurement of the potency of a compound. EC50 values were determined by a nonlinear regression of the detachment effect versus the cationic surfactant concentration data from Table A-3.

[2] = system: Salmonella typhimurium ATCC 14028; assay: Effect on viability of Salmonella in suspension (Tables D-1 to D-3); format: cell-based; settings: Table D-1
Procedure, shortened: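 Bactericidal activity against Salmonella measured in suspension; EC50 derived by nonlinear regression of kill versus molar concentration. Na2-EDTA and EGTA dissolved and diluted in 0.04 M PPB; EGTA heated 15 minutes at 80° C., adjusted to pH 7.0 with NaOH, filter-sterilized.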

[3] = system: Salmonella typhimurium on chicken skin; assay: Prevention of attachment of Salmonella on excised chicken skin (Table F5)
Procedure: To determine the ability of surfactants to inhibit attachment or produce detachment of Salmonella, the following experiment was conducted. A hole was bored into the bottom of a 150 ml specimen cup. Chicken skin was excised from a drum stick and then placed over the cap of the specimen cup, and then the cap was screwed on. S. typhimurium was diluted 1:5000 with PBS or a surfactant. The surfactants were diluted appropriately. The skin was then inoculated with the solution containing the S. typhimurium and the surfactant for 30 minutes at room temperature.
Following incubation, the skin was washed. The rinse water was diluted appropriately in PBS and then plated onto XLD pour plates. The S. typhimurium was counted and reported as CFU/ml. The skin was swabbed so as to remove any remaining S. typhimurium using a nitroellulose lift and the CFU's/ml on the lift were also counted.

[4] = system: Salmonella typhimurium TA100; assay: Salmonella reversion assay, TA100
Procedure: Test strains TA98 and TA100 were obtained from Bruce N. Ames (University of California, Berkley, Calif.). Mutagenicities were determined both in the absence of and in the presence of a mammalian liver S9 activating system. S9 is the 9000×g supernatant prepared from liver homogenates from Aroclor 1254 stimulated male Sprague Dawley rats. The S9 was purchased from Molecular Toxicology, Inc. (Anapolis, Md.).
Bacterial broth cultures were grown overnight at 37° with shaking in Oxoid Broth #2. For assays in the absence of S9, a 0.5 ml aliquot of 100 mM Sodium Phosphate Buffer, pH 7.4, was added to sterile 13×100 mm capped culture tubes. For assays in the presence of S9, a 0.5 ml aliquot of 10% S9 mix was added. The S9 mix consisted of 8 mM magnesium chloride, 33 mM potassium chloride, 5 mM glucose-6-phosphate, 4 mM NADP, 100 mM sodium phosphate, pH 7.4 and S9 in a concentration of approximately 1.46 mg protein/ml.
The culture tubes were placed in an ice bath and 0.1 ml of the bacterial suspension and 0.1 ml of a DMSO solution of the test compound were added. The mixture was vortexed gently and incubated at 37° for 20 minutes with shaking in a water bath. Molten top agar (2.0 ml) containing 0.5 mM histidine HCl and 0.5 mM biotin were added, and the mixture was vortexed gently and poured onto a minimal glucose plate. After allowing the agar to solidify, the plates were inverted and placed in a 37° incubator in the dark for 48 hours. The revertant (mutant) colonies were counted and the background lawn was examined on all plates. A response that was two times that of the DMSO solvent control was considered a positive response.

[5] = system: Salmonella typhimurium TA100; assay: Salmonella reversion assay after heating at 205° C., TA100; format: cell-based; settings: for Revertants/plate: heated at 205° C.
Procedure: Test strains TA98 and TA100 were used. Again, mutagenicities were determined both in the absence and in the presence of the mammalian liver S9 activating system.
A response that was two times that of the solvent control was considered a positive response.

adherent S. typhimurium = settings: 10 minutes

CCCCCCCCCCCCCCCC[n+]1ccccc1 [CPC, cetylpyridinium chloride]
adherence, mean value of attached bacteria ([1]; 2.5 ug/ml): 73 ± 55
adherence, mean value of attached bacteria ([1]; 5 ug/ml): 42 ± 22
adherence, mean value of attached bacteria ([1]; 10 ug/ml): 28 ± 10
bacterial viability ([2]; 20 ug/ml): 1.84 ± 0.087 × 10^8 CFU/ml
bacterial viability ([2]; 22.5 ug/ml): 9.07 ± 2.16 × 10^7 CFU/ml
bacterial viability ([2]; 25 ug/ml): 5.15 ± 1.18 × 10^6 CFU/ml
CFU/ml on XLD agar [3]: 20
Nitrocellulose lift (# of colonies) ([3]; skin, 30 minutes at room temperature): 4 # of colonies
Revertants/plate ([4]; TA100, +S9, 5 μg/plate): 129 ± 14 Revertants/plate
Revertants/plate ([4]; TA100, +S9, 10 μg/plate): 136 ± 11 Revertants/plate
Revertants/plate ([4]; TA100, +S9, 20 μg/plate): 126 ± 14 Revertants/plate
Revertants/plate ([4]; TA100, +S9, 40 μg/plate): 125 ± 5 Revertants/plate
Revertants/plate ([4]; TA100, +S9, 50 μg/plate): 126 ± 10 Revertants/plate
Revertants/plate ([4]; TA100, -S9, 1 μg/plate): 98 ± 5 Revertants/plate
Revertants/plate ([4]; TA100, -S9, 5 μg/plate): 133 ± 5 Revertants/plate
Revertants/plate ([4]; TA100, -S9, 10 μg/plate): 130 ± 9 Revertants/plate
mutagenicity (in words) ([4]; TA100, absence of S9, low concentrations): nonmutagenic
mutagenicity and cytotoxicity (in words) ([4]; TA100, presence of S9): neither mutagenic nor cytotoxic
Revertants/plate ([5]; TA100, +S9, 0.1 μg/plate): 122 ± 3 Revertants/plate
Revertants/plate ([5]; TA100, +S9, 1.0 μg/plate): 126 ± 14 Revertants/plate
Revertants/plate ([5]; TA100, +S9, 5.0 μg/plate): 118 ± 10 Revertants/plate
Revertants/plate ([5]; TA100, +S9, 10.0 μg/plate): 123 ± 8 Revertants/plate
Revertants/plate ([5]; TA100, -S9, 0.1 μg/plate): 117 ± 6 Revertants/plate
Revertants/plate ([5]; TA100, -S9, 1.0 μg/plate): 113 ± 8 Revertants/plate
Revertants/plate ([5]; TA100, -S9, 5.0 μg/plate): 123 ± 4 Revertants/plate
Revertants/plate ([5]; TA100, -S9, 10.0 μg/plate): 126 ± 4 Revertants/plate
mutagenicity after heating in vegetable oil (in words) ([5]; TA100, absence or presence of S9, all concentrations tested): did not produce substances which are mutagenic
Colony Count (±SD) (adherent S. typhimurium; 5 μg/ml): 2.52 ± 2.69 × 10^3
Colony Count (±SD) (adherent S. typhimurium; 10 μg/ml): 4.40 ± 5.68 × 10^2
Colony Count (±SD) (adherent S. typhimurium; 50 μg/ml): 2.0 ± 4.5 × 10^1
